“And” between values parts separate entries of the source, which are not always exact repeats. Equal values may be shown once.
What was measured:
SPC25 = experiment: Expression of SPC25 across different generation CDX tumor of Blab/c Nude mice in CDDP group (Ct); assay type: in vivo; settings: for Gapdh (Ct): Gapdh_rep1-3, single replicates; for Expression of SPC25 (Ct): SPC25_rep1-3, single replicates
Source text: Supplement ADVS-11-2406688-s001.zip/SourceData.xlsx, sheet "Fig1E-1G,S1F" | column: Expression of SPC25 in CDDP-resistant and Parental CDX tumor of Blab/c Nude mice (Ct)

[1] = system: OVCAR8 xenografted tumor tissues; experiment: TUNEL assay in intraperitoneal xenografted tumor tissues, OVCAR8; assay type: in vivo, human EOC cells in BALB/c-Nude mice; settings: for TUNEL+ cell (%): #1-#6; for TUNEL assay: animal model OVCAR8
Procedure: (§1) In the intraperitoneal tumor model, 1 × 10^6 of the indicated cells stably expressing luciferase were injected intraperitoneally into the mice. Treatment with saline (Vehicle), CDDP (5 mg/kg, 3 times per week for 1 week), CBP1 (10 mg/kg, once in 2 days), or a combination of CDDP (5 mg/kg, 3 times per week for 1 week) and CBP1 (10 mg/kg, once in 2 days) was initiated when the bioluminescence signal reached 2 × 10^7 p/s/cm^2/sr for 6 weeks of continuous treatment cycles. The mice were sacrificed when they became moribund, as determined by an observer blinded to the treatment. Finally, their tumors were excised for qRT‐PCR and Western blotting.
TUNEL Assay: The TUNEL staining procedure was conducted on the DeadEnd Fluorometric TUNEL System (#G3250; Promega), according to the manufacturer’s instructions. In brief, paraffin-embedded sections were baked at 65°C for 60 min, followed by three washes in a xylene bath. The sections were then washed in a series of absolute ethanol, 95% ethanol, and 70% ethanol, and finally, in PBS. Then, each section was treated with proteinase K at 37°C for 30 min and washed three times with PBS. Thereafter, the sections were incubated with […] (containing Biotin-11-dUTP and TdT Enzyme) at 37 ℃ for 1 h in the dark, followed by three PBS washes. The samples were subsequently incubated with streptavidin–fluorescein at 37 ℃ for 30 min in the dark, followed by three washes with PBS. DAPI was used to stain the nucleus. Finally, the experimental outcomes were observed under a fluorescence microscope, and the percentages of TUNEL-positive cells were quantified from 10 randomly selected fields.

caspase-3 and PARP = experiment: Western blotting of apoptosis-related proteins in xenografted tumor tissues; assay type: in vivo, human EOC cells in BALB/c-Nude mice; settings: SPC25-overexpressing OVCAR3 tumors, CDDP
Procedure: as §1
Western Blotting: Western blotting was performed using primary antibodies detailed in Table S5 (Supporting Information). Western blotting grayscale analyses were performed using ImageJ (version 2.0.0; NIH, Bethesda, MD, USA). β-Catenin expression was quantified by determining the gray level of each band using Image J and normalized using α-tubulin.

Q: Which results are given for [NH2][Pt]([NH2])([Cl])[Cl] [CDDP, cisplatin]?
A: Gapdh (Ct) (SPC25; 1st generation): 17.013 Ct and 17.354 Ct and 17.197 Ct; Expression of SPC25 (Ct) (SPC25; 1st generation): 27.496 Ct and 27.737 Ct and 27.628 Ct; Gapdh (Ct) (SPC25; 2nd generation): 16.968 Ct and 16.875 Ct and 17.154 Ct; Expression of SPC25 (Ct) (SPC25; 2nd generation): 26.835 Ct and 27.032 Ct and 26.963 Ct; Gapdh (Ct) (SPC25; 3rd generation): 16.826 Ct and 17.002 Ct and 16.952 Ct; Expression of SPC25 (Ct) (SPC25; 3rd generation): 26.448 Ct and 26.397 Ct and 26.314 Ct; Gapdh (Ct) (SPC25; 4th generation): 16.654 Ct and 16.763 Ct and 16.924 Ct; Expression of SPC25 (Ct) (SPC25; 4th generation): 25.574 Ct and 25.623 Ct and 25.706 Ct; TUNEL+ cell (%) ([1]; OVCAR8 sh-SPC25#1, CDDP-treated mice): 27.13% and 29.66% and 28.67% and 22.53% and 32.03% and 26.06%; TUNEL+ cell (%) ([1]; OVCAR8 sh-Scramble, CDDP-treated mice): 5.89% and 11.46% and 4.76% and 9.62% and 7.34% and 8.41%; TUNEL assay ([1]; animal #1): 10.02%; TUNEL assay ([1]; animal #2): 8.97%; TUNEL assay ([1]; animal #3): 6.23%; TUNEL assay ([1]; animal #4): 11.92%; TUNEL assay ([1]; animal #5): 7.56%; TUNEL assay ([1]; animal #6): 8.03%; TUNEL assay ([1]; animal #7): 7.63%; activation of caspase-3 and PARP (caspase-3 and PARP): lowered activation
